The source made the active and inactive calls. The rule behind the calls is not given here.
What was measured:
[1] = Cytotoxicity against human colon cancer cells after 48 hrs by SRB assay; format: functional; details: Cancer cell lines
[2] = Cytotoxicity against human leukemia cells after 48 hrs by SRB assay; format: functional; details: Leukemia cell; for CC50: read-out: LC50 (the source's name)
[3] = Cytotoxicity against human CNS cancer cells after 48 hrs by SRB assay; format: functional; details: Cancer cell lines
CCRF-CEM = assay: Cytotoxicity against human CCRF-CEM cells assessed as cell growth at 10 uM after 48 hrs by SRB assay; format: functional; details: read-out: Activity
[4] = Cytotoxicity against human renal cancer cells after 48 hrs by SRB assay; format: functional; details: Cancer cell lines
[5] = Cytotoxicity against human prostate cancer cells after 48 hrs by SRB assay; format: functional; details: Cancer cell lines
[6] = Cytotoxicity against human ovarian cancer cells after 48 hrs by SRB assay; format: functional; details: Cancer cell lines
[7] = Cytotoxicity against human melanoma cells after 48 hrs by SRB assay; format: functional; details: Melanoma cell; for CC50: read-out: LC50 (the source's name)
[8] = Cytotoxicity against human breast cancer cells after 48 hrs by SRB assay; format: functional; details: Cancer cell lines
[9] = Cytotoxicity against human non-small cell lung cancer cells after 48 hrs by SRB assay; format: functional; details: Cancer cell lines; for CC50: read-out: LC50 (the source's name)
SK-MEL-5 = assay: Cytotoxicity against human SK-MEL-5 cells assessed as cell growth at 10 uM after 48 hrs by SRB assay; format: functional; details: SK-MEL-5, 48 h, read-out: Activity
HL-60(TB) = assay: Cytotoxicity against human HL-60(TB) cells assessed as cell growth at 10 uM after 48 hrs by SRB assay; format: functional; details: HL-60, 48 h, read-out: Activity
OVCAR-3 = assay: Cytotoxicity against human OVCAR3 cells assessed as cell growth at 10 uM after 48 hrs by SRB assay; format: functional; details: OVCAR-3, 48 h, read-out: Activity
MOLT-4 = assay: Cytotoxicity against human MOLT4 cells assessed as cell growth at 10 uM after 48 hrs by SRB assay; format: functional; details: MOLT-4, 48 h, read-out: Activity
OVCAR-4 = assay: Cytotoxicity against human OVCAR4 cells assessed as cell growth at 10 uM after 48 hrs by SRB assay; format: functional; details: OVCAR-4, 48 h, read-out: Activity
786-0 = assay: Cytotoxicity against human 786-0 cells assessed as cell growth at 10 uM after 48 hrs by SRB assay; format: functional; details: 786-0, 48 h, read-out: Activity
[10] = Toxicity in mouse; format: organism-based; details: in vivo
Mus musculus = assay: Antitumor activity in ip dosed athymic nude mouse hollow fiber model assessed as reduction of viable cell mass; format: functional, organism-based

| Compound | GI50 [1] [µM] | LC50 (concentration lethal to 50% of cells) [1] [µM] | TGI [1] [µM] | GI50 [2] [µM] | TGI [2] [µM] | CC50 [2] [µM] | GI50 [3] [µM] | LC50 (concentration giving 50% net cell kill) [3] [µM] | TGI [3] [µM] | GI50 [4] [µM] | LC50 [4] [µM] | TGI [4] [µM] | GI50 [5] [µM] | TGI [5] [µM] | GI50 [6] [µM] | LC50 (concentration causing 50% net cell kill) [6] [µM] | TGI [6] [µM] | GI50 [7] [µM] | TGI [7] [µM] | CC50 [7] [µM] | also measured |
| --- | --- | --- | --- | --- | --- | --- | --- | --- | --- | --- | --- | --- | --- | --- | --- | --- | --- | --- | --- | --- | --- |
| COc1ccc(-c2cc(-c3ccc(Cl)cc3)n(C3C(=O)Nc4ccc(Br)cc43)n2)cc1 (centres undefined) | 7.2 | 78.8 | 36.3 | 12.3 | 67 | 100 | 5.48 | 46.5 | 16.7 | 9.2 | 62.1 | 32.3 | 7.65 | 22.1 | 9.75 | 64.8 | 28.7 | 13.2 | 49.3 | 81.1 | growth at 10 µM (CCRF-CEM): 58.6%; LC50 [5]: 61.2 µM; GI50 [8]: 8.1 µM; LC50 (concentration causing 50% net cell kill) [8]: 65.8 µM; TGI [8]: 24.6 µM; GI50 [9]: 7.53 µM; TGI [9]: 30 µM; CC50 [9]: 58.6 µM |
| O=C1N=C(N2N=C(c3ccccc3)CC2c2ccc(Cl)cc2)S/C1=C1/C(=O)Nc2ccccc21 (centres undefined) | 0.19 | 0.81 | 0.39 | 0.37 | 70.8 | 100 | 0.19 | 2.07 | 0.5 | 0.27 | 22.1 | 0.85 | 0.25 | 0.85 | 0.23 | 26.7 | 0.65 | 0.28 | 0.54 | 1 | growth at 10 µM (SK-MEL-5): -56.9%; GI50 [8]: 0.32 µM; LC50 (concentration causing 50% net cell kill) [8]: 39.4 µM; TGI [8]: 0.91 µM; GI50 [9]: 0.23 µM; TGI [9]: 6.29 µM; CC50 [9]: 30 µM |
| CN(C)c1ccc(C2CC(c3ccccc3)=NN2C2=NC(=O)/C(=C3\C(=O)Nc4ccc(Cl)cc43)S2)cc1 (centres undefined) | 0.19 | 16.5 | 0.41 | 0.34 | 3.11 | 100 | 0.19 | 1.63 | 0.43 | 0.19 | 15.3 | 0.43 | 0.25 | 0.69 | 0.24 | 48.8 | 0.62 | 0.26 | 0.57 | 2.16 | LC50 [5]: 12.8 µM; growth at 10 µM (SK-MEL-5): -52.9%; GI50 [8]: 0.22 µM; LC50 (concentration causing 50% net cell kill) [8]: 2.32 µM; TGI [8]: 0.53 µM; GI50 [9]: 0.21 µM; TGI [9]: 0.51 µM; CC50 [9]: 37.9 µM |
| O=C1N=C(N2N=C(c3ccccc3)CC2c2ccccc2O)S/C1=C1/C(=O)Nc2ccc(Br)cc21 (centres undefined) | 0.21 | 1.67 | 0.46 | 0.27 | 1.05 | 9.49 | 0.24 | 4.12 | 0.72 | 0.23 | 2.55 | 0.63 | 0.29 | 0.93 | 0.28 | 19 | 0.94 | 0.23 | 0.66 | 2.43 | LC50 [5]: 7.68 µM; growth at 10 µM (SK-MEL-5): -53.9%; GI50 [8]: 0.26 µM; LC50 (concentration causing 50% net cell kill) [8]: 3.59 µM; TGI [8]: 0.8 µM; GI50 [9]: 0.24 µM; TGI [9]: 0.67 µM; CC50 [9]: 7.24 µM |
| CN(C)c1ccc(-c2cc(-c3ccccc3)nn2C2C(=O)Nc3ccccc32)cc1 (centres undefined) | 16.1 | 79 | 39.7 | 16.3 | 74.6 | 100 | 21.2 | 95.1 | 68.7 | 17.4 | 86.2 | 57.3 | 16.1 | 74 | 18.9 | 93.3 | 67.2 | 19.6 | 54.5 | 91.2 | LC50 [5]: 100 µM; growth at 10 µM (HL-60(TB)): 70.9%; GI50 [8]: 20.8 µM; LC50 (concentration causing 50% net cell kill) [8]: 90.1 µM; TGI [8]: 73.4 µM; GI50 [9]: 16.2 µM; TGI [9]: 56 µM; CC50 [9]: 90.9 µM |
| COc1ccc(C2CC(c3ccccc3)=NN2C2=NC(=O)/C(=C3\C(=O)Nc4ccccc43)S2)cc1 (centres undefined) | 1.81 | 32 | 4.39 | 1.64 | 20.8 | 93 | 1.62 | 7.39 | 3.45 | 2.01 | 34.3 | 4.27 | 1.52 | 3.35 | 2.3 | 71.1 | 19 | 2 | 4.51 | 38 | growth at 10 µM (OVCAR-3): -51.4%; LC50 [5]: 7.37 µM; GI50 [8]: 2.02 µM; LC50 (concentration causing 50% net cell kill) [8]: 39 µM; TGI [8]: 4.58 µM; GI50 [9]: 2.38 µM; TGI [9]: 6.04 µM; CC50 [9]: 70.8 µM |
| COc1ccc(-c2cc(-c3ccc4ccccc4c3)nn2C2C(=O)Nc3ccc(Cl)cc32)cc1 (centres undefined) | – | – | – | – | – | – | – | – | – | – | – | – | – | – | – | – | – | – | – | – | growth at 10 µM (MOLT-4): 98.2% |
| COc1ccc(C2=NN(C3=NC(=O)/C(=C4\C(=O)Nc5ccc(Br)cc54)S3)C(c3ccc(Cl)cc3)C2)cc1 (centres undefined) | 0.13 | 16.1 | 7.44 | 0.19 | 14 | 100 | 0.12 | 15.7 | 1.48 | 0.14 | 4 | 0.37 | 0.18 | 1.01 | 0.19 | 29.8 | 14.7 | 0.16 | 0.34 | 0.99 | LC50 [5]: 100 µM; growth at 10 µM (SK-MEL-5): -56.4%; GI50 [8]: 0.14 µM; LC50 (concentration causing 50% net cell kill) [8]: 19.2 µM; TGI [8]: 0.4 µM; GI50 [9]: 0.12 µM; TGI [9]: 0.34 µM; CC50 [9]: 12.4 µM |
| COc1ccc(-c2cc(-c3ccc(Cl)cc3)n(C3C(=O)Nc4ccc(Cl)cc43)n2)cc1 (centres undefined) | 6.15 | 69.4 | 28.6 | 27.9 | 79.2 | 100 | 3.94 | 42.2 | 14.4 | 3.75 | 42.4 | 13.2 | 6.49 | 20.3 | 3.68 | 52.3 | 14.7 | 9.4 | 46.7 | 76.4 | growth at 10 µM (CCRF-CEM): 50.8%; LC50 [5]: 62.4 µM; GI50 [8]: 6.29 µM; LC50 (concentration causing 50% net cell kill) [8]: 47.6 µM; TGI [8]: 17.8 µM; GI50 [9]: 4.37 µM; TGI [9]: 23.2 µM; CC50 [9]: 59.8 µM |
| O=C1Nc2ccc(Br)cc2C1n1nc(-c2ccc3ccccc3c2)cc1-c1ccc(Cl)cc1 (centres undefined) | 4.33 | 51.1 | 15 | 10.4 | 15.2 | 79.2 | 3.18 | 33.3 | 10.5 | 2.5 | 27.2 | 7.66 | 2.57 | 8.89 | 3.09 | 33.2 | 9.85 | 6.53 | 22.4 | 56.8 | growth at 10 µM (OVCAR-4): 58.5%; LC50 [5]: 34.4 µM; GI50 [8]: 4.3 µM; LC50 (concentration causing 50% net cell kill) [8]: 62.1 µM; TGI [8]: 14.3 µM; GI50 [9]: 3.31 µM; TGI [9]: 10 µM; CC50 [9]: 34.5 µM |
| O=C1Nc2ccc(Br)cc2C1n1nc(-c2ccccc2)cc1-c1ccc(Cl)cc1 (centres undefined) | – | – | – | – | – | – | – | – | – | – | – | – | – | – | – | – | – | – | – | – | growth at 10 µM (786-0): 90.1% |
| COc1ccc(-c2cc(-c3ccc4ccccc4c3)nn2C2C(=O)Nc3ccccc32)cc1 (centres undefined) | – | – | – | – | – | – | – | – | – | – | – | – | – | – | – | – | – | – | – | – | growth at 10 µM (OVCAR-4): 91.5% |
| COc1ccc(C2=NN(C3=NC(=O)/C(=C4\C(=O)Nc5ccccc54)S3)C(c3ccc(Cl)cc3)C2)cc1 (centres undefined) | 100 | 100 | 100 | 86.5 | 90.9 | 100 | 77.5 | 100 | 100 | 100 | 100 | 100 | 100 | 100 | 100 | 100 | 100 | 100 | 100 | 100 | MTD [10]: > 400 mg/kg; Activity (Mus musculus): inactive; growth at 10 µM (OVCAR-3): 77.5%; LC50 [5]: 100 µM; GI50 [8]: 100 µM; LC50 (concentration causing 50% net cell kill) [8]: 100 µM; TGI [8]: 100 µM; GI50 [9]: 92.4 µM; TGI [9]: 100 µM; CC50 [9]: 100 µM |

Reference: ChEMBL document CHEMBL2169792, “Synthesis of new 4-thiazolidinone-, pyrazoline-, and isatin-based conjugates with promising antitumor activity” (J Med Chem, 2012)
